Results on 2 compounds are retold here after patent US20050065596A1, “Stents capable of controllably releasing histone deacetylase inhibitors” (priority 2002, published 2005).

Each structure is given as a SMILES string.

What all share (format): cell-based
The subject of data set [1] is Human aortic SMCs. Description: Morphological analysis of human aortic SMCs after one day incubation with drug. To be noted: FIG. 12; for morphological changes observed in a 40× microscope field: one day incubation, 100 nM and 500 nM TSA, 10 nM RPM, 50 nM Paclitaxel. On the procedure:
(§1) Human aortic SMCs were obtained from BioWhittaker Molecular Applications, Inc. (Clonetics, CC-2571), cultured in Smooth Muscle Medium-2 (BioWhittaker Molecular Applications, Inc., CC-3182), and maintained at 37° C. in humidified 95% air/5% CO2. Human aortic SMCs of passages 8-9 were used in the following experiments.
(§2) Human aortic SMCs cells were seeded, at a density of 6×10^3 cells/well, in a 24-well plate (about 3×10^3 cells/cm^2, quadruplicates). Following cell attachment for 24 hours, the above drugs were added to the cells, to achieve the following final concentrations: 100 nM and 500 nM of TSA, 10 nM of RPM, and 50 nM of Paclitaxel.
Following a one day incubation with the drug, the morphological changes in the cells were evaluated under a microscope.

Data set [2] deals with Human aortic SMCs. The data set can be described thus: MTT assay of cell proliferation. On the procedure:
as §1
(§3) Cell proliferation was measured by MTT assay and cell counting.
as §2
Following three additional days of incubation, 50 μl MTT (methylthiazoletetrazolium, 5 mg/ml in sterile H2O) were added in 0.5 ml medium to each well, and the cells were incubated at 37° C. for 4 hours. The medium was then aspirated, and the cells were dissolved in 300 μl 0.1 N HCl/isopropanol, mixed thoroughly, and a 100 μl portion of the mixture was transferred into a 96-well plate;
The 96-well plate was applied to a micro-plate reader and the absorbance at 570 nm was read. The average reading of wells containing only medium was set as the Control. For each sample, the proliferation rate was determined by the following equation: (Reading/Control)×100=Proliferation Rate (% of Control).
(Tetrazolium dyes change colour on reduction, which living cells bring about.)

Data set [3] deals with Human aortic SMCs. The data set can be described thus: Cell counting (growth curves). To be noted: 50 nM TSA; days 0-14, medium with TSA replaced every 2-3 days; vs control cells; FIG. 14. On the procedure:
as §1, §3
Human aortic SMCs cells were seeded, at a density of […], in a 24-well plate (about 1.5×10^3 cells/cm^2, in triplicates). Following cell attachment for 24 hours, TSA was added to achieve a final concentration of 50 nM.
Every 2-3 days, the medium was removed and replaced with a fresh medium containing TSA. Control cells were treated with medium without TSA.
On days 0, 1, 2, 3, 6, 9, and 14 post-treatment, the cells were trypsinized and counted with a hemacytometer.

`CC(=O)O[C@H]1C(=O)[C@@]2(C)[C@H]([C@H](OC(=O)c3ccccc3)[C@]3(O)C[C@H](OC(=O)[C@H](O)[C@@H](NC(=O)c4ccccc4)c4ccccc4)C(C)=C1C3(C)C)[C@]1(OC(C)=O)CO[C@@H]1C[C@@H]2O` [Paclitaxel]: the “morphological changes observed in a 40× microscope field” value in the data set on Human aortic SMCs [1] is “Rounded up pro-apoptotic cells appeared”. In addition, the “cytotoxicity on SMCs” value with Human aortic SMCs [2] (50 nM Paclitaxel, before the application of MTT assay) is “high cytotoxicity on SMCs and caused cell death”.
`CC(/C=C/C(=O)NO)=C\[C@@H](C)C(=O)c1ccc(N(C)C)cc1` [TSA, Trichostatin A]: in the data set with Human aortic SMCs [1] (concluded from the morphological analysis), the “nature of the inhibitory effect on SMCs” value is given as “mainly cytostatic”. The “morphological changes observed in a 40× microscope field” value with Human aortic SMCs [1] is “No morphological changes”. Moreover, the “inhibitory effect on the growth of the human SMCs (proliferation rate, MTT)” value in the data set with Human aortic SMCs [2] (100 nM TSA and 500 nM TSA, four days incubation, FIG. 13) was “inhibits SMC proliferation in vitro in a dose-dependent mainer”. Also, the “continuous effect on SMCs growth (growth curves, cell counting)” value in the data set on Human aortic SMCs [3] is “significant inhibitory effect”.
